Measurements as given in ChEMBL document CHEMBL2169792, “Synthesis of new 4-thiazolidinone-, pyrazoline-, and isatin-based conjugates with promising antitumor activity” (J Med Chem, 2012).
The source made the active and inactive calls. The calls are words filed in the database; no cut-off is given here.

What was measured:
NCI-H522 = assay: Cytotoxicity against human NCI-H522 cells assessed as cell growth at 10 uM after 48 hrs by SRB assay; type: functional; conditions: NCI-H522, 48 h, read-out: Activity
[1] = Cytotoxicity against human non-small cell lung cancer cells after 48 hrs by SRB assay; type: functional; conditions: Cancer cell lines; for CC50: read-out: LC50 (the source's name)
[2] = Cytotoxicity against human prostate cancer cells after 48 hrs by SRB assay; type: functional; conditions: Cancer cell lines
[3] = Cytotoxicity against human breast cancer cells after 48 hrs by SRB assay; type: functional; conditions: Cancer cell lines
[4] = Cytotoxicity against human renal cancer cells after 48 hrs by SRB assay; type: functional; conditions: Cancer cell lines
[5] = Cytotoxicity against human melanoma cells after 48 hrs by SRB assay; type: functional; conditions: Melanoma cell; for CC50: read-out: LC50 (the source's name)
[6] = Cytotoxicity against human ovarian cancer cells after 48 hrs by SRB assay; type: functional; conditions: Cancer cell lines
[7] = Cytotoxicity against human CNS cancer cells after 48 hrs by SRB assay; type: functional; conditions: Cancer cell lines
[8] = Cytotoxicity against human colon cancer cells after 48 hrs by SRB assay; type: functional; conditions: Cancer cell lines
[9] = Cytotoxicity against human leukemia cells after 48 hrs by SRB assay; type: functional; conditions: Leukemia cell; for CC50: read-out: LC50 (the source's name)
U-251 = assay: Cytotoxicity against human U251 cells assessed as cell growth at 10 uM after 48 hrs by SRB assay; type: functional; conditions: U-251, 48 h, read-out: Activity
CCRF-CEM = assay: Cytotoxicity against human CCRF-CEM cells assessed as cell growth at 10 uM after 48 hrs by SRB assay; type: functional; conditions: read-out: Activity
[10] = Toxicity in mouse; type: organism-based; conditions: in vivo
Mus musculus = assay: Antitumor activity in ip dosed athymic nude mouse hollow fiber model assessed as reduction of viable cell mass; type: functional, organism-based

| SMILES | GI50 [1] | TGI [1] | CC50 [1] | GI50 [2] | LC50 [2] | GI50 [3] | LC50 (concentration causing 50% net cell kill) [3] | TGI [3] | GI50 [4] | LC50 [4] | TGI [4] | GI50 [5] | TGI [5] | CC50 [5] | GI50 [6] | LC50 (concentration causing 50% net cell kill) [6] | GI50 [7] | LC50 (concentration giving 50% net cell kill) [7] | TGI [7] | GI50 [8] | also measured |
| --- | --- | --- | --- | --- | --- | --- | --- | --- | --- | --- | --- | --- | --- | --- | --- | --- | --- | --- | --- | --- | --- |
| O=C1Nc2ccccc2C1n1nc(-c2ccccc2)cc1-c1ccc(Cl)cc1 (stereo not drawn) | – | – | – | – | – | – | – | – | – | – | – | – | – | – | – | – | – | – | – | – | growth at 10 µM (NCI-H522): 76.6% |
| COc1ccc(C2=NN(C3=NC(=O)/C(=C4\C(=O)Nc5ccccc54)S3)C(c3ccc(OC)cc3)C2)cc1 (stereo not drawn) | 88100 nM | 91600 nM | 100 µM | 100000 nM | 100 µM | 81500 nM | 100 µM | 99.6 µM | 85200 nM | 100 µM | 100000 nM | 100000 nM | 100000 nM | 100 µM | 92200 nM | 100 µM | 43900 nM | 100 µM | 89200 nM | 100000 nM | TGI [2]: 100000 nM; TGI [6]: 100 µM; LC50 (concentration lethal to 50% of cells) [8]: 100 µM; TGI [8]: 100 µM; GI50 [9]: 100000 nM; TGI [9]: 100 µM; CC50 [9]: 100 µM; growth at 10 µM (U-251): 44.7% |
| O=C1Nc2ccccc2C1n1nc(-c2ccc3ccccc3c2)cc1-c1ccc(Cl)cc1 (stereo not drawn) | – | – | – | – | – | – | – | – | – | – | – | – | – | – | – | – | – | – | – | – | growth at 10 µM (NCI-H522): 90.8% |
| COc1ccc(C2=NN(C3=NC(=O)/C(=C4\C(=O)N(C)c5ccccc54)S3)C(c3ccc(Cl)cc3)C2)cc1 (stereo not drawn) | – | – | – | – | – | – | – | – | – | – | – | – | – | – | – | – | – | – | – | – | growth at 10 µM (NCI-H522): 102% |
| Cc1ccc2c(c1)/C(=C1\SC(N3N=C(c4ccccc4)CC3c3ccc(Cl)cc3)=NC1=O)C(=O)N2 (stereo not drawn) | 210 nM | 620 nM | 100 µM | 310 nM | 100 µM | 800 nM | 100 µM | 100 µM | 240 nM | 100 µM | 520 nM | 300 nM | 670 nM | 100 µM | 260 nM | 100 µM | 240 nM | 75.2 µM | 320 nM | 230 nM | LC50 (concentration lethal to 50% of cells) [8]: 100 µM; TGI [8]: 0.35 µM; GI50 [9]: 390 nM; TGI [9]: 39.4 µM; CC50 [9]: 85.2 µM; growth at 10 µM (U-251): -54% |
| COc1ccc(-c2cc(-c3ccc(OC)cc3)n(C3C(=O)Nc4ccc(Br)cc43)n2)cc1 (stereo not drawn) | – | – | – | – | – | – | – | – | – | – | – | – | – | – | – | – | – | – | – | – | growth at 10 µM (NCI-H522): 88.6% |
| COc1ccc(C2=NN(C3=NC(=O)/C(=C4\C(=O)Nc5ccc(Cl)cc54)S3)C(c3ccc(OC)cc3)C2)cc1 (stereo not drawn) | 200 nM | 440 nM | 64.2 µM | 250 nM | 100 µM | 220 nM | 75.2 µM | 0.5 µM | 190 nM | 50.5 µM | 390 nM | 190 nM | 380 nM | 33.9 µM | 230 nM | 83.5 µM | 200 nM | 35.5 µM | 420 nM | 210 nM | TGI [2]: 710 nM; TGI [6]: 21.2 µM; LC50 (concentration lethal to 50% of cells) [8]: 58.7 µM; TGI [8]: 0.43 µM; GI50 [9]: 280 nM; TGI [9]: 75.2 µM; CC50 [9]: 100 µM; growth at 10 µM (NCI-H522): 0.8% |
| O=C(O)CN1C(=O)C(n2nc(-c3ccccc3)cc2-c2ccc(Cl)cc2)c2ccccc21 (stereo not drawn) | – | – | – | – | – | – | – | – | – | – | – | – | – | – | – | – | – | – | – | – | growth at 10 µM (CCRF-CEM): 97.7% |
| COc1ccc(C2=NN(C3=NC(=O)/C(=C4\C(=O)Nc5ccc(Br)cc54)S3)C(c3ccc(OC)cc3)C2)cc1 (stereo not drawn) | 200 nM | 430 nM | 75.2 µM | 270 nM | 100 µM | 210 nM | 66.9 µM | 0.48 µM | 200 nM | 64.6 µM | 380 nM | 190 nM | 410 nM | 17.3 µM | 240 nM | 78.7 µM | 200 nM | 70.2 µM | 405 nM | 200 nM | TGI [2]: 710 nM; TGI [6]: 32.5 µM; LC50 (concentration lethal to 50% of cells) [8]: 50.4 µM; TGI [8]: 25.3 µM; GI50 [9]: 280 nM; TGI [9]: 62.7 µM; CC50 [9]: 100 µM; growth at 10 µM (U-251): 23.9% |
| COc1ccc(C2=NN(C3=NC(=O)/C(=C4\C(=O)Nc5ccc(Cl)cc54)S3)C(c3ccc(Cl)cc3)C2)cc1 (stereo not drawn) | 200 nM | 460 nM | 7.93 µM | 270 nM | 76.2 µM | 200 nM | 25.7 µM | 0.47 µM | 200 nM | 13.8 µM | 460 nM | 200 nM | 440 nM | 1.21 µM | 270 nM | 31.3 µM | 190 nM | 12.7 µM | 430 nM | 210 nM | TGI [2]: 740 nM; TGI [6]: 7.97 µM; LC50 (concentration lethal to 50% of cells) [8]: 8.2 µM; TGI [8]: 0.45 µM; GI50 [9]: 270 nM; TGI [9]: 0.89 µM; CC50 [9]: 91.1 µM; growth at 10 µM (U-251): -58% |
| COc1ccc(C2CC(c3ccc4ccccc4c3)=NN2C2=NC(=O)/C(=C3\C(=O)Nc4ccccc43)S2)cc1 (stereo not drawn) | 620 nM | 4030 nM | 48.7 µM | 360 nM | 100 µM | 5960 nM | 73.7 µM | 32.8 µM | 870 nM | 51.3 µM | 13600 nM | 4800 nM | 27000 nM | 64.1 µM | 970 nM | 66.9 µM | 670 nM | 48.2 µM | 12600 nM | 1680 nM | TGI [2]: 2470 nM; TGI [6]: 24.2 µM; LC50 (concentration lethal to 50% of cells) [8]: 38.3 µM; TGI [8]: 12.4 µM; GI50 [9]: 17500 nM; TGI [9]: 59.6 µM; CC50 [9]: 97.5 µM; growth at 10 µM (U-251): -26.3% |
| COc1ccc(-c2cc(-c3ccc(OC)cc3)n(C3C(=O)Nc4ccccc43)n2)cc1 (stereo not drawn) | – | – | – | – | – | – | – | – | – | – | – | – | – | – | – | – | – | – | – | – | growth at 10 µM (NCI-H522): 87.5% |
| CN(C)c1ccc(C2CC(c3ccccc3)=NN2C2=NC(=O)/C(=C3\C(=O)Nc4ccccc43)S2)cc1 (stereo not drawn) | 7420 nM | 25200 nM | 49 µM | 270 nM | 41.4 µM | 5260 nM | 57.3 µM | 20.2 µM | 6370 nM | 43 µM | 18800 nM | 6900 nM | 29400 nM | 43.9 µM | 1220 nM | 47.1 µM | 1110 nM | 41.6 µM | 3240 nM | 2550 nM | MTD [10]: > 400 mg/kg; TGI [2]: 34000 nM; TGI [6]: 39.7 µM; LC50 (concentration lethal to 50% of cells) [8]: 40.4 µM; TGI [8]: 35.3 µM; GI50 [9]: 33900 nM; TGI [9]: 45.6 µM; CC50 [9]: 94.8 µM; growth at 10 µM (U-251): -39.6%; Activity (Mus musculus): inactive |
| O=C(O)CN1C(=O)C(n2nc(-c3ccc4ccccc4c3)cc2-c2ccc(Cl)cc2)c2ccccc21 (stereo not drawn) | – | – | – | – | – | – | – | – | – | – | – | – | – | – | – | – | – | – | – | – | growth at 10 µM (CCRF-CEM): 103% |
| O=C1N=C(N2N=C(c3ccc4ccccc4c3)CC2c2ccc(Cl)cc2)S/C1=C1/C(=O)Nc2ccccc21 (stereo not drawn) | 460 nM | 20900 nM | 100 µM | 400 nM | 100 µM | 740 nM | 91.7 µM | 38.3 µM | 400 nM | 75.5 µM | 42100 nM | 350 nM | 24700 nM | 83 µM | 15400 nM | 100 µM | 8800 nM | 75.9 µM | 27300 nM | 530 nM | MTD [10]: > 400 mg/kg; TGI [2]: 50700 nM; TGI [6]: 56.1 µM; LC50 (concentration lethal to 50% of cells) [8]: 83.8 µM; TGI [8]: 70.3 µM; GI50 [9]: 19100 nM; TGI [9]: 71.6 µM; CC50 [9]: 93.1 µM; growth at 10 µM (U-251): -25.1%; Activity (Mus musculus): inactive |
| COc1ccc(-c2cc(-c3ccc(Cl)cc3)n(C3C(=O)Nc4ccccc43)n2)cc1 (stereo not drawn) | – | – | – | – | – | – | – | – | – | – | – | – | – | – | – | – | – | – | – | – | growth at 10 µM (CCRF-CEM): 75.6% |
| COc1ccc(-c2cc(-c3ccc(OC)cc3)n(C3C(=O)Nc4ccc(Cl)cc43)n2)cc1 (stereo not drawn) | – | – | – | – | – | – | – | – | – | – | – | – | – | – | – | – | – | – | – | – | growth at 10 µM (NCI-H522): 82% |
| CN(C)c1ccc(C2CC(c3ccccc3)=NN2C2=NC(=O)/C(=C3\C(=O)Nc4ccc(Br)cc43)S2)cc1 (stereo not drawn) | 220 nM | 540 nM | 17 µM | 270 nM | 55.3 µM | 220 nM | 18.7 µM | 0.51 µM | 200 nM | 7.47 µM | 450 nM | 200 nM | 460 nM | 7.65 µM | 250 nM | 39.6 µM | 210 nM | 12.3 µM | 450 nM | 200 nM | TGI [2]: 720 nM; TGI [6]: 0.69 µM; LC50 (concentration lethal to 50% of cells) [8]: 1.22 µM; TGI [8]: 0.42 µM; GI50 [9]: 310 nM; TGI [9]: 1.29 µM; CC50 [9]: 84.8 µM; growth at 10 µM (U-251): -51.1% |
